ChEMBL document CHEMBL3085736, “Identification of sulfonic acids as efficient ecto-5'-nucleotidase inhibitors” (Eur J Med Chem, 2013)
pIC50: −log10 of the molar value.

Tests used:
5'-nucleotidase [1] = molecular target: T1, 5'-nucleotidase (Homo sapiens, UniProt P21589); assay: Inhibition of human recombinant ecto-5'-nucleotidase expressed in african green monkey COS7 cells using adenosine monophosphate as substrate preincubated for 10 mins before substrate addition measured after 10 mins by capillary electrophoresis; type: cell-based, COS-7
T1 sequence (P21589 whole entry): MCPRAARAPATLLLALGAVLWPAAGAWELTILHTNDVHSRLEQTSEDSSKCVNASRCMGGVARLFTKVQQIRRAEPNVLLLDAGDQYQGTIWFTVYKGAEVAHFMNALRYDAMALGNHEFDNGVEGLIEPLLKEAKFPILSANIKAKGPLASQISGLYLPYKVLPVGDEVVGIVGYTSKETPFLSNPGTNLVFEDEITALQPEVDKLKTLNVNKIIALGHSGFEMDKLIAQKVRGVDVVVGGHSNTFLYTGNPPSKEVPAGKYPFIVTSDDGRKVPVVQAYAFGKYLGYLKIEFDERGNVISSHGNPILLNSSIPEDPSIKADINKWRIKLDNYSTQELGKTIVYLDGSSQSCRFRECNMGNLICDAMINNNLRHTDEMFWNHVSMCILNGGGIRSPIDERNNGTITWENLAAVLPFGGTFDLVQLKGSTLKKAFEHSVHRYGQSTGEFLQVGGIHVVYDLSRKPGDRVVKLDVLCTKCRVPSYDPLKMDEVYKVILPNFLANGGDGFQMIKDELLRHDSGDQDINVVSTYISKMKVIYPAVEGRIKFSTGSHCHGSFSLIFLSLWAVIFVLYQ

NCI-H157 [2] = assay: Cytotoxicity against human NCI-H157 cells at 100 uM after 24 hrs by sulforhodamine B assay; type: functional
HCEC = assay: Cytotoxicity against HCEC after 24 hrs by sulforhodamine B assay; type: cell-based; details: human
5'-nucleotidase [3] = molecular target: T2, 5'-nucleotidase (Rattus norvegicus, UniProt P21588); assay: Inhibition of rat recombinant ecto-5'-nucleotidase expressed in african green monkey COS7 cells using adenosine monophosphate as substrate preincubated for 10 mins before substrate addition measured after 10 mins by capillary electrophoresis; type: cell-based, COS-7
T2 sequence (P21588 whole entry): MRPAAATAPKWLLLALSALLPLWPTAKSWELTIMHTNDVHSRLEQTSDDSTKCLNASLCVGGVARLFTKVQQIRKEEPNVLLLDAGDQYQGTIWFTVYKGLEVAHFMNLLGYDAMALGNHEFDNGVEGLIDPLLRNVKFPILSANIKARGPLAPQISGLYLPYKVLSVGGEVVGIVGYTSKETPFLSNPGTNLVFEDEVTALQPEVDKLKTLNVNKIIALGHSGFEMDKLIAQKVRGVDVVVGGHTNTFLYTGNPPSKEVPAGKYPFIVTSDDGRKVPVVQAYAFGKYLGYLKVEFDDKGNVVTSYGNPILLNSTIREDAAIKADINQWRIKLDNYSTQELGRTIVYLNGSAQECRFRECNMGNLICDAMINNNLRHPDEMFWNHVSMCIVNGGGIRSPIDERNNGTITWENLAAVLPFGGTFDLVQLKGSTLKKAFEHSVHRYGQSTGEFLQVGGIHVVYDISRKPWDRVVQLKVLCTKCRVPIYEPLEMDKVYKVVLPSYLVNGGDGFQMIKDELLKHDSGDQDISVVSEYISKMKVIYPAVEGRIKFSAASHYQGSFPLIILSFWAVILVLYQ

[4] = molecular target: T3, 5'-nucleotidase (Rattus norvegicus) (UniProt P21588); assay: Inhibition of rat recombinant ecto-5'-nucleotidase expressed in african green monkey COS7 cells using adenosine monophosphate as substrate at 1 mM preincubated for 10 mins before substrate addition measured after 10 mins by capillary electrophoresis; type: cell-based; details: COS-7
T3 sequence (whole entry): T2 sequence (P21588 whole entry)

5'-nucleotidase [5] = molecular target: T1, 5'-nucleotidase; assay: Inhibition of human recombinant ecto-5'-nucleotidase expressed in african green monkey COS7 cells using adenosine monophosphate as substrate at 1 mM preincubated for 10 mins before substrate addition measured after 10 mins by capillary electrophoresis; type: cell-based; details: COS-7
NCI-H157 [6] = assay: Cytotoxicity against human NCI-H157 cells at 10 uM after 24 hrs by sulforhodamine B assay; type: functional

| SMILES | pIC50 (5'-nucleotidase [1]) | Activity (NCI-H157 [2]) [%] | Activity (HCEC) | pIC50 (5'-nucleotidase [3]) | inhibition [4] [%] | inhibition (5'-nucleotidase [5]) [%] | Activity (NCI-H157 [6]) [%] |
| --- | --- | --- | --- | --- | --- | --- | --- |
| Cc1ccc2nc(-c3ccc(N)cc3)sc2c1S(=O)(=O)O | 4.87 | <40 | Non-toxic | 4.73 | – | – | – |
| NS(=O)(=O)O [SULFAMATE] | 4.38 | <40 | Non-toxic | 4.11 | – | – | – |
| Nc1cc(S(=O)(=O)O)cc2cc(S(=O)(=O)O)cc(O)c12 | 4.66 | <40 | Non-toxic | 4.12 | – | – | – |
| CC[C@]1(O)C[C@H]2CN(CCc3c([nH]c4ccccc34)[C@@](C(=O)OC)(c3cc4c(cc3OC)N(C=O)[C@H]3[C@@](O)(C(=O)OC)[C@H](OC(C)=O)[C@]5(CC)C=CCN6CC[C@]43[C@@H]65)C2)C1 [VINCRISTINE] | – | 47 | – | – | – | – | – |
| Nc1ccc2cc(S(=O)(=O)O)cc(O)c2c1 | 5.88 | <40 | Non-toxic | 4.98 | – | – | – |
| Nc1c(O)cc(S(=O)(=O)O)c2cc([N+](=O)[O-])ccc12 | 4.39 | <40 | Non-toxic | 4.50 | – | – | – |
| Nc1c(S(=O)(=O)O)cc(Br)c2c1C(=O)c1ccccc1C2=O | – | <40 | Non-toxic | – | 27 | 4 | – |
| CC1=NN(c2ccc(S(=O)(=O)O)cc2)C(=O)C1 | 5.21 | 72 | Non-toxic | 4.35 | – | – | 40 |
| Nc1ccc(Nc2ccc([N+](=O)[O-])cc2)c(S(=O)(=O)O)c1 | 4.32 | 42 | Non-toxic | 4.14 | – | – | – |
| Nc1ccc(S(=O)(=O)O)c2ccccc12 | – | <40 | Non-toxic | – | 28 | 43 | – |
| CC1=NN(c2ccccc2)C(=O)C1 [EDARAVONE] | – | 70 | Non-toxic | – | 29 | 15 | 40 |
| Nc1ccc(S(=O)(=O)O)cc1 | 5.09 | <40 | Non-toxic | 4.15 | – | – | – |
| NC(=O)Nc1ccc2cc(S(=O)(=O)O)cc(O)c2c1 | 4.52 | <40 | Non-toxic | – | 40 | – | – |
| Nc1cc(S(=O)(=O)[O-])cc2ccccc12.[Na+] | – | 48 | Non-toxic | – | 20 | 35 | – |
